Experimental data reported in PubChem BioAssay (NCI).
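Five concentrations, 48 hours, 96-well plates. At the GI50, growth is halved. The concentration for full growth arrest is given as TGI.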

Experiments:
Experiment in all cases: NCI-60 cell line screen, 48 h
HCT-15 colon = test system: HCT-15 colon
CCRF-CEM leukemia = test system: CCRF-CEM leukemia
IGROV1 ovarian = test system: IGROV1 ovarian
OVCAR-5 ovarian = test system: OVCAR-5 ovarian
SW-620 colon = test system: SW-620 colon
A549 NSCLC = test system: A549 NSCLC
SK-OV-3 ovarian = test system: SK-OV-3 ovarian
DU-145 prostate = test system: DU-145 prostate
MDA-MB-231 breast = test system: MDA-MB-231 breast
HOP-92 NSCLC = test system: HOP-92 NSCLC
UACC-62 melanoma = test system: UACC-62 melanoma
M14 melanoma = test system: M14 melanoma
SNB-19 CNS = test system: SNB-19 CNS
786-0 renal = test system: 786-0 renal
OVCAR-3 ovarian = test system: OVCAR-3 ovarian
HS 578T breast = test system: HS 578T breast
ACHN renal = test system: ACHN renal
K-562 leukemia = test system: K-562 leukemia
CAKI-1 renal = test system: CAKI-1 renal
SK-MEL-2 melanoma = test system: SK-MEL-2 melanoma
SN12C renal = test system: SN12C renal
KM12 colon = test system: KM12 colon
TK-10 renal = test system: TK-10 renal
OVCAR-4 ovarian = test system: OVCAR-4 ovarian
NCI-H522 lung = test system: NCI-H522 lung
UO-31 renal = test system: UO-31 renal
BT-549 breast = test system: BT-549 breast
SF-539 CNS = test system: SF-539 CNS
MOLT-4 leukemia = test system: MOLT-4 leukemia
OVCAR-8 ovarian = test system: OVCAR-8 ovarian
SF-268 CNS = test system: SF-268 CNS
NCI/ADR-RES ovarian = test system: NCI/ADR-RES ovarian
EKVX NSCLC = test system: EKVX NSCLC
NCI-H460 lung = test system: NCI-H460 lung
RPMI-8226 leukemia = test system: RPMI-8226 leukemia
NCI-H23 lung = test system: NCI-H23 lung
UACC-257 melanoma = test system: UACC-257 melanoma
T-47D breast = test system: T-47D breast
MDA-MB-435 = test system: MDA-MB-435
HCC-2998 colon = test system: HCC-2998 colon
SK-MEL-5 melanoma = test system: SK-MEL-5 melanoma
HT29 colon = test system: HT29 colon
MALME-3M melanoma = test system: MALME-3M melanoma
HCT-116 colon = test system: HCT-116 colon
A498 renal = test system: A498 renal
LOX IMVI melanoma = test system: LOX IMVI melanoma
SR leukemia = test system: SR leukemia
PC-3 prostate = test system: PC-3 prostate
MCF7 breast = test system: MCF7 breast
SF-295 CNS = test system: SF-295 CNS
HL-60(TB) leukemia = test system: HL-60(TB) leukemia
NCI-H226 lung = test system: NCI-H226 lung
SNB-75 CNS = test system: SNB-75 CNS
RXF 393 renal = test system: RXF 393 renal
HOP-62 NSCLC = test system: HOP-62 NSCLC
SK-MEL-28 melanoma = test system: SK-MEL-28 melanoma
COLO 205 colon = test system: COLO 205 colon
U251 CNS = test system: U251 CNS

Cc1cc(OCc2n[nH]c(=S)n2/N=C/c2ccc(F)cc2)ccc1Cl
GI50 (HCT-15 colon): 19.2 µM | TGI (HCT-15 colon): 47.2 µM | GI50 (CCRF-CEM leukemia): 25.7 µM | TGI (CCRF-CEM leukemia): 70.2 µM | GI50 (IGROV1 ovarian): 25.4 µM | TGI (IGROV1 ovarian): 82.3 µM | GI50 (OVCAR-5 ovarian): > 100 µM | TGI (OVCAR-5 ovarian): > 100 µM | GI50 (SW-620 colon): 34.5 µM | TGI (SW-620 colon): > 100 µM | GI50 (A549 NSCLC): 26.6 µM | TGI (A549 NSCLC): 68.6 µM | GI50 (SK-OV-3 ovarian): 31.7 µM | TGI (SK-OV-3 ovarian): 82.3 µM | GI50 (DU-145 prostate): 56.7 µM | TGI (DU-145 prostate): > 100 µM | GI50 (MDA-MB-231 breast): 23.4 µM | TGI (MDA-MB-231 breast): 62.5 µM | GI50 (HOP-92 NSCLC): 32.6 µM | TGI (HOP-92 NSCLC): > 100 µM | GI50 (UACC-62 melanoma): 20.1 µM | TGI (UACC-62 melanoma): 41.8 µM | GI50 (M14 melanoma): 29 µM | TGI (M14 melanoma): > 100 µM | GI50 (SNB-19 CNS): 27.8 µM | TGI (SNB-19 CNS): 83.8 µM | GI50 (786-0 renal): 29.2 µM | TGI (786-0 renal): 87.2 µM | GI50 (OVCAR-3 ovarian): 22.9 µM | TGI (OVCAR-3 ovarian): 49.4 µM | GI50 (HS 578T breast): 56.6 µM | TGI (HS 578T breast): > 100 µM | GI50 (ACHN renal): 31.2 µM | TGI (ACHN renal): 87.5 µM | GI50 (K-562 leukemia): 20.8 µM | TGI (K-562 leukemia): 54 µM | GI50 (CAKI-1 renal): 42.8 µM | TGI (CAKI-1 renal): > 100 µM | GI50 (SK-MEL-2 melanoma): 23.1 µM | TGI (SK-MEL-2 melanoma): 57.2 µM | GI50 (SN12C renal): 19.6 µM | TGI (SN12C renal): 37.1 µM | GI50 (KM12 colon): 22.1 µM | TGI (KM12 colon): 53.8 µM | GI50 (TK-10 renal): 19.1 µM | TGI (TK-10 renal): 58 µM | GI50 (OVCAR-4 ovarian): 25.4 µM | TGI (OVCAR-4 ovarian): 55.4 µM | GI50 (NCI-H522 lung): 21.7 µM | TGI (NCI-H522 lung): 54.8 µM | GI50 (UO-31 renal): 29.5 µM | TGI (UO-31 renal): 91.6 µM | GI50 (BT-549 breast): 48 µM | TGI (BT-549 breast): > 100 µM | GI50 (SF-539 CNS): 25.8 µM | TGI (SF-539 CNS): 57.4 µM | GI50 (MOLT-4 leukemia): 19.4 µM | TGI (MOLT-4 leukemia): 51 µM | GI50 (OVCAR-8 ovarian): 38.8 µM | TGI (OVCAR-8 ovarian): > 100 µM | GI50 (SF-268 CNS): 30 µM | TGI (SF-268 CNS): 86.7 µM | GI50 (NCI/ADR-RES ovarian): 29.3 µM | TGI (NCI/ADR-RES ovarian): 87.3 µM | GI50 (EKVX NSCLC): 64.4 µM | TGI (EKVX NSCLC): > 100 µM | GI50 (NCI-H460 lung): 28.6 µM | TGI (NCI-H460 lung): > 100 µM | GI50 (RPMI-8226 leukemia): 16.7 µM | TGI (RPMI-8226 leukemia): 40.1 µM | GI50 (NCI-H23 lung): 29.8 µM | TGI (NCI-H23 lung): 94 µM | GI50 (UACC-257 melanoma): 26.4 µM | TGI (UACC-257 melanoma): 62 µM | GI50 (T-47D breast): 20.5 µM | TGI (T-47D breast): 57.3 µM | GI50 (MDA-MB-435): 25.9 µM | TGI (MDA-MB-435): > 100 µM | GI50 (HCC-2998 colon): 20.6 µM | TGI (HCC-2998 colon): 43.7 µM | GI50 (SK-MEL-5 melanoma): 17.9 µM | TGI (SK-MEL-5 melanoma): 35 µM | GI50 (HT29 colon): 18.9 µM | TGI (HT29 colon): 37.7 µM | GI50 (MALME-3M melanoma): 25.1 µM | TGI (MALME-3M melanoma): 56.5 µM | GI50 (HCT-116 colon): 23.3 µM | TGI (HCT-116 colon): 53.1 µM | GI50 (A498 renal): 25.1 µM | TGI (A498 renal): 68.3 µM | GI50 (LOX IMVI melanoma): 16.1 µM | TGI (LOX IMVI melanoma): 32.4 µM | GI50 (SR leukemia): 18.5 µM | TGI (SR leukemia): 39.7 µM | GI50 (PC-3 prostate): 29.2 µM | TGI (PC-3 prostate): > 100 µM | GI50 (MCF7 breast): 33.1 µM | TGI (MCF7 breast): > 100 µM | GI50 (SF-295 CNS): 30.1 µM | TGI (SF-295 CNS): > 100 µM | GI50 (HL-60(TB) leukemia): 18.3 µM | TGI (HL-60(TB) leukemia): 47.2 µM | GI50 (NCI-H226 lung): 22.4 µM | TGI (NCI-H226 lung): 54.7 µM | GI50 (SNB-75 CNS): 22.7 µM | TGI (SNB-75 CNS): 69.2 µM | GI50 (RXF 393 renal): 22.4 µM | TGI (RXF 393 renal): 46.8 µM | GI50 (HOP-62 NSCLC): 81 µM | TGI (HOP-62 NSCLC): > 100 µM | GI50 (SK-MEL-28 melanoma): 26.7 µM | TGI (SK-MEL-28 melanoma): 74.2 µM | GI50 (COLO 205 colon): 15.9 µM | TGI (COLO 205 colon): 35.8 µM

COc1ccc(Nc2nc3cc(C(F)(F)F)ccc3nc2C(=O)O)cc1OC
TGI (HCT-15 colon): > 100 µM | TGI (CCRF-CEM leukemia): 67.5 µM | TGI (IGROV1 ovarian): > 100 µM | TGI (OVCAR-5 ovarian): > 100 µM | TGI (SW-620 colon): > 100 µM | TGI (A549 NSCLC): > 100 µM | TGI (DU-145 prostate): > 100 µM | TGI (MDA-MB-231 breast): 65.6 µM | TGI (HOP-92 NSCLC): 74.9 µM | TGI (UACC-62 melanoma): 53.6 µM | TGI (M14 melanoma): > 100 µM | TGI (SNB-19 CNS): > 100 µM | TGI (786-0 renal): > 100 µM | TGI (OVCAR-3 ovarian): 93.3 µM | TGI (HS 578T breast): > 100 µM | TGI (ACHN renal): > 100 µM | TGI (K-562 leukemia): > 100 µM | TGI (CAKI-1 renal): 56.3 µM | TGI (SK-MEL-2 melanoma): 33.2 µM | TGI (SN12C renal): 64.2 µM | TGI (KM12 colon): 88.4 µM | TGI (TK-10 renal): > 100 µM | TGI (OVCAR-4 ovarian): > 100 µM | TGI (NCI-H522 lung): > 100 µM | TGI (UO-31 renal): > 100 µM | TGI (BT-549 breast): > 100 µM | TGI (SF-539 CNS): 62.3 µM | TGI (MOLT-4 leukemia): 69.5 µM | TGI (OVCAR-8 ovarian): > 100 µM | TGI (SF-268 CNS): > 100 µM | TGI (NCI/ADR-RES ovarian): > 100 µM | TGI (U251 CNS): > 100 µM | TGI (EKVX NSCLC): > 100 µM | TGI (NCI-H460 lung): > 100 µM | TGI (RPMI-8226 leukemia): 92 µM | TGI (NCI-H23 lung): 78.9 µM | TGI (UACC-257 melanoma): > 100 µM | TGI (T-47D breast): > 100 µM | TGI (MDA-MB-435): > 100 µM | TGI (HCC-2998 colon): > 100 µM | TGI (SK-MEL-5 melanoma): 47.9 µM | TGI (HT29 colon): > 100 µM | TGI (MALME-3M melanoma): > 100 µM | TGI (HCT-116 colon): 95.7 µM | TGI (A498 renal): > 100 µM | TGI (LOX IMVI melanoma): > 100 µM | TGI (SR leukemia): 77 µM | TGI (PC-3 prostate): > 100 µM | TGI (MCF7 breast): 95.3 µM | TGI (SF-295 CNS): 45.5 µM | TGI (HL-60(TB) leukemia): 72.2 µM | TGI (NCI-H226 lung): 55.6 µM | TGI (SNB-75 CNS): > 100 µM | TGI (RXF 393 renal): 60.2 µM | TGI (HOP-62 NSCLC): > 100 µM | TGI (SK-MEL-28 melanoma): > 100 µM | TGI (COLO 205 colon): 69.3 µM
